Like-named read-outs stand apart in the source and are kept apart here. Where a SMILES comes first, the peptide text is derived from it. Where no end group is shown, it is not given here. The star is where a group is joined. Palmitoyl = CCCCCCCCCCCCCCCC(=O)* Bounds are passed on as bounds.

What all share (type): cell-based
The subject of experiment [1] is Staphylococcus epidermidis ATCC 14990. As to conditions: S. epidermidis; same MIC in μM (in brackets); broth microdilution, MHB II, overnight at 37 °C, triplicate. As for the experimental part:
(§1) All selected strains were obtained from the Polish Collection of Microorganisms (Polish Academy of Science, Wroclaw, Poland). Four Gram-positive and three Gram-negative strains linked with CL-related infections lenses were tested (Table 5). The microorganisms were cultured in a Mueller Hinton Broth II (MHB, Biocorp, Warsaw, Poland) overnight, at 37 °C.
(§2) Peptide susceptibility tests on the reference bacterial strains were performed with the following procedures recommended by the Clinical and Laboratory Standard Institute (CLSI). The activity of five peptides was tested on the Mueller Hinton Broth II (Biocorp, Warsaw, Poland) using broth microdilution method on polystyrene 96-well plates (Kartell, Noviglio, Italy). […] The plates were incubated overnight at 37 °C. MIC was assumed as the lowest concentration at which bacterial growth was no longer visible. All experiments were performed in triplicate.
(In general: In broth dilution the organism is exposed to a series of concentrations in liquid medium.)

Experiment [2] relates to Staphylococcus aureus ATCC 25923. Particulars: S. aureus; same MIC in μM (in brackets); broth microdilution, MHB II, overnight at 37 °C, triplicate. As for the experimental part: as §1, §2
Experiment [3] has as its system Pseudomonas aeruginosa ATCC 9027. As to conditions: P. aeruginosa; same MIC in μM (in brackets); broth microdilution, MHB II, overnight at 37 °C, triplicate. The method, then:
as §1, §2

Experiment [4] relates to Streptococcus pneumoniae ATCC 49619. As to conditions: S. pneumoniae; same MIC in μM (in brackets); broth microdilution, MHB II, overnight at 37 °C, triplicate. The method, then:
as §1, §2

For experiment [5], the system named is Streptococcus pyogenes PCM 465. As to conditions: S. pyogenes; same MIC in μM (in brackets); broth microdilution, MHB II, overnight at 37 °C, triplicate. The method, then:
as §1, §2

Experiment [6] has as its system Escherichia coli ATCC 25922. Particulars: E. coli; same MIC in μM (in brackets); broth microdilution, MHB II, overnight at 37 °C, triplicate. The method, then:
as §1, §2

The test system of experiment [7] is Staphylococcus aureus ATCC 25923 biofilm on contact lenses. Put plainly: Biofilm assay on contact lenses (MBEC, resazurin). Particulars: S. aureus, triplicate. As for the experimental part:
as §1
(§3) The CL and CL solutions used are commercially available. One-day CL (1-Day Acuvue Moist) containing Etafilcon A were obtained from Johnson and Johnson Vision Care (Jacksonsville, FL, USA). Four popular CL solutions were also tested (Table 6).
(§4) Biofilms of strains related with ocular infections were cultured on CL placed in polystyrene 24-well plates (Orange Scientific, Braine-l’Alleud, Belgium). Biomaterials were incubated at 37 °C in bacterial suspension in the Mueller Hinton Broth II (Biocorp, Warsaw, Poland) at initial inoculums of ca. 5 × 10^5 CFU/mL. After 24 h of incubation all of the CL were rinsed three times with a sterile phosphate buffer (AppliChem, Darmstadt, Germany). The lenses were then transferred into new wells with fresh MHB II. One-day biofilms were exposed to a pre-determined range of peptides concentration. […] Anti-biofilm activity of selected peptides was visualized using a cell-viability reagent, Resazurin (Sigma Aldrich, St. Louis, MO, USA). Upon contact with living cells the dye is metabolized by bacterial dehydrogenases resulting in the reduction of the blue resazurin to a pink resorufin. Positive controls contained CL immersed in bacterial suspensions without antimicrobials, while CL in a sterile culture medium served as negative controls. The minimum biofilm eradication concentration (MBEC) was read after a one-hour incubation with Resazurin (final concentration per sample = 0.005%) MBEC was determined as the lowest concentration at which the reduction of resazurin was lower or equal (10% ± 0.5%) as compared to positive (100%) and negative (0%) controls. All experiments were performed in triplicate.
In general terms: Resazurin is reduced to fluorescent resorufin, in cell work by metabolically active cells.

Experiment [8] concerns Streptococcus pyogenes PCM 465 biofilm on contact lenses. Description: Biofilm assay on contact lenses (MBEC, resazurin). As to conditions: S. pyogenes, triplicate. As for the experimental part: as §1, §3, §4
Experiment [9] deals with Staphylococcus epidermidis ATCC 14990 biofilm on contact lenses. Put plainly: Biofilm assay on contact lenses (MBEC, resazurin). Particulars: S. epidermidis, triplicate. As for the experimental part: as §1, §3, §4
For experiment [10], the system named is Streptococcus pneumoniae ATCC 49619 biofilm on contact lenses. Put plainly: Biofilm assay on contact lenses (MBEC, resazurin). Particulars: S. pneumoniae, triplicate. The method, then: as §1, §3, §4
The subject of experiment [11] is Escherichia coli ATCC 25922 biofilm on contact lenses. As to conditions: for Minimum biofilm eradication concentration (reduction of resazurin ≤10% ± 0.5%): E. coli, triplicate. The method, then: as §1, §3, §4
For experiment [12], the system named is Pseudomonas aeruginosa ATCC 9027 biofilm on contact lenses. As to conditions: for Minimum biofilm eradication concentration (reduction of resazurin ≤10% ± 0.5%): P. aeruginosa, triplicate; for Concentration eliminating P. aeruginosa from the lens surface (MBEC): ATCC 9027, 24 h. As for the experimental part: as §1, §3, §4
Experiment [13] has as its system planktonic bacteria, all tested strains. Put plainly: Minimum inhibitory concentration, summary over all tested strains. Particulars: summary of Table 1. As for the experimental part: as §1, §2
The test system of experiment [14] is biofilms formed by Gram-positive bacteria on contact lenses. Put plainly: Biofilm assay on contact lenses (MBEC), summary over Gram-positive strains. As to conditions: both temperatures (25 °C and 37 °C). The method, then: as §1, §3, §4
The mark [15] stands for this setting: 25 °C, one-day biofilm on contact lens (Etafilcon A), 24 h exposure in MHB II, resazurin read-out.
Where [16] appears, read: 25 °C, same MBEC in μM (in brackets), biofilm on contact lens, 24 h exposure.
The mark [17] stands for this setting: 37 °C, one-day biofilm on contact lens (Etafilcon A), 24 h exposure in MHB II, resazurin read-out.
Where [18] appears, read: 37 °C, same MBEC in μM (in brackets), biofilm on contact lens, 24 h exposure.

Regarding `CCCCCCCCCCCCCCCC(=O)N[C@@H](CCCNC(=N)N)C(=O)N[C@@H](CCCNC(=N)N)C(N)=O` [Palm-RR-NH2] (Palmitoyl-Arg-Arg-NH2), the Minimum inhibitory concentration entry in experiment [1] is “(5.0) μM”; in experiment [2], “(10.1) μM”; in experiment [3], “(40.3) μM”; in [4], “(5.0) μM”; in experiment [5] it was “(20.1) μM”; in experiment [6], “(20.1) μM”. For the same molecule, the “Minimum biofilm eradication concentration (reduction of resazurin ≤10% ± 0.5%)” value was 128 µg/mL in experiment [7] (setting [15]); “(161.0) μM” in experiment [7] (setting [16]); 256 µg/mL in [7] (setting [17]); “(322.1) μM” in [7] (setting [18]); 128 µg/mL in experiment [8] (setting [15]); “(161.0) μM” in [8] (setting [16]). In addition, the “Minimum biofilm eradication concentration (reduction of resazurin ≤10% ± 0.5%)” value in experiment [8] (setting [17]) was above 512 µg/mL; in experiment [8] (setting [18]) it was “(>644.1) μM”; in [9] (setting [15]), 64 µg/mL; in experiment [9] (setting [16]), “(80.5) μM”; in experiment [9] (setting [17]), 32 µg/mL; in experiment [9] (setting [18]) it was “(40.3) μM”. Besides, the “Minimum biofilm eradication concentration (reduction of resazurin ≤10% ± 0.5%)” value was 64 µg/mL in experiment [10] (setting [15]); “(80.5) μM” in experiment [10] (setting [16]); 32 µg/mL in [10] (setting [17]); “(40.3) μM” in experiment [10] (setting [18]); 256 µg/mL in experiment [11] (setting [15]); “(322.1) μM” in experiment [11] (setting [16]). Further, the “Minimum biofilm eradication concentration (reduction of resazurin ≤10% ± 0.5%)” value in [11] (setting [17]) is 512 µg/mL; in [11] (setting [18]), “(644.1) μM”; in experiment [12] (setting [15]), above 512 µg/mL; in experiment [12] (setting [16]), “(>644.1) μM”; in [12] (setting [17]) it was above 512 µg/mL; in experiment [12] (setting [18]), “(>644.1) μM”.
In the case of “FLPLIGRVLSGIL-NH2 [Temporin A, reference compound]”, the “Concentration eliminating P. aeruginosa from the lens surface (MBEC)” value in [12] is 512 µg/mL.
Consider GIGKFLKKAKKFGKAFVKILKK-NH2 [Pexiganan], for which the “Concentrations inhibiting bacterial growth (MIC), range over all tested strains” value in experiment [13] was in the range of 1 to 8 µg/mL.
Take “GLFDVIKKVASVIGGL-NH2 [Citropin 1.1, reference compound]”: in experiment [14], the “MBEC values, range over Gram-positive strains” value was 16 to 64 µg/mL. Further, in [11] (ATCC 25922, 24 h), the “Concentration eradicating E. coli biofilms (MBEC)” value fell in the range of 128 to 256 µg/mL. In experiment [12], the “Concentration eliminating P. aeruginosa from the lens surface (MBEC)” value was found to be 512 µg/mL.

The values above are taken from PMC5457276, “Influence of Amphibian Antimicrobial Peptides and Short Lipopeptides on Bacterial Biofilms Formed on Contact Lenses” (Materials, 2016).
